Test system: not given
Test: not given
Format: physicochemical
Settings: not given
Method: Step 7: Compound (3-6) (80 mg, 0.167 mmol) and 4,6,7-trifluoro-1H-indole-2-carboxylic acid (36.0 mg, 0.167 mmol) were dissolved in CH2Cl2 (1.393 ml) and DMF (0.279 ml) at 0° C. 4-methylmorpholine (55.1 μl, 0.501 mmol) and HATU (66.7 mg, 0.176 mmol) were added. The mixture was stirred at 0° C. for 3 h, diluted with DCM, and washed with 5% NaHCO3. The organic layer was washed with brine, dried over Na2SO4, and concentrated in vacuo. The crude was purified by chromatography on silica gel (ISCO 4 g) using ethyl acetate/cyclohexane (0-60%) to give a product as a light yellow oil (3-7) (60 mg, 53%). LC-MS, ES−: 674.2 [M-1]. Step 8: To a solution of (3-7) (60 mg, 0.089 mmol) in DCM (2 ml) at 0° C. was added Dess-Martin periodinane (56.5 mg, 0.133 mmol). The mixture was stirred at 0° C. for 3 h, quenched with 10% Na2S2O3, stirred for another 15 min, and extracted with DCM. The combined organic layers were washed with 10% Na2S2O3, Sat. NaHCO3, brine, dried over Na2SO4, and concentrated.

For `CC(C)C[C@@H](C(=O)N1C[C@]2(C[C@H]1C(=O)c1nc3ccccc3s1)C(=O)Nc1ccccc12)N(C)C(=O)c1cc2c(F)cc(F)c(F)c2[nH]1` [Example 3], the stability in solution was “not stable in solution”.

Target: SARS-CoV-2 3CL-protease (Severe acute respiratory syndrome coronavirus 2, UniProt P0DTD1)
Test: SARS-CoV-2 3C-like (3CL) protease fluorescence assay (FRET)
Format: biochemical
Settings: recombinant SARS-CoV-2 3CL-protease 10 nM, 30 min preincubation at RT, substrate 40 μM, run in duplicate

First: CC(C)C[C@@H](C(=O)N1C[C@]2(C[C@@H]1C(=O)c1nc3ccccc3s1)C(=O)Nc1ccccc12)N(C)C(=O)c1cc2c(F)cc(F)cc2[nH]1 [Example 2]
Second: CC(C)C[C@@H](C(=O)N1C[C@]2(C[C@H]1C(=O)c1nc3ccccc3s1)C(=O)Nc1ccccc12)N(C)C(=O)c1cc2c(F)cc(F)cc2[nH]1 [Example 1]
The IC50 of the first is higher: > 10 µM for the first, < 1 µM for the second.

`CC(C)C[C@@H](C(=O)N1C[C@]2(C[C@H]1C(=O)c1nc3ccccc3s1)C(=O)Nc1ccccc12)N(C)C(=O)c1cc2c(F)cc(F)c(F)c2[nH]1` [Example 3] and `CC(C)C[C@@H](C(=O)N1C[C@]2(C[C@@H]1C(=O)c1nc3ccccc3s1)C(=O)Nc1ccccc12)N(C)C(=O)c1cc2c(F)cc(F)c(F)c2[nH]1` [Example 4] cannot be ordered by IC50: > 10 µM for the first, > 10 µM for the second.

Going from `CC(C)C[C@@H](C(=O)N1C[C@]2(C[C@H]1C(=O)c1nc3ccccc3s1)C(=O)Nc1ccccc12)N(C)C(=O)[C@H](C)NC(=O)OCc1ccccc1` [Example 6] to `CC(C)C[C@@H](C(=O)N1C[C@]2(C[C@H]1C(=O)c1nc3ccccc3s1)C(=O)Nc1ccccc12)N(C)C(=O)OCc1ccccc1` [Example 5], the IC50 rises from < 1 µM to > 10 µM.
